Experimental data as given in ChEMBL document CHEMBL1151995, “Evaluation of tea polyphenols as anti-HIV agents” (Bioorg Med Chem Lett, 1996).
Converted amounts (≈) assume the structure as drawn.

Tests used:
[1] = tested on: Human immunodeficiency virus 1; test: Inhibition of HIV-1 replication in H9 (human lymphoma) cells; No suppression.; assay type: functional, organism-based
H9 = test: Inhibition of uninfected H9 lymphocytic cell growth; assay type: functional, cell-based; conditions: Homo sapiens
[2] = tested on: Human immunodeficiency virus 1; test: Inhibition of HIV-1 replication in H9 (human lymphoma) cells.; assay type: functional, organism-based; conditions: Human immunodeficiency virus 1, H9
[3] = Therapeutic index - IC50/EC50.; conditions: read-out: Therapeutic index

| EC50 [1] | EC50 [2] | Compound | IC50 (H9) | selectivity ratio [3] |
| --- | --- | --- | --- | --- |
| No effect | – | COc1cc(C(=O)O[C@@H]2Cc3c(O)cc(O)cc3O[C@@H]2c2ccc(O)c(O)c2)cc(O)c1O | 50 µg/mL (≈ 110 µM) | – |
| – | 15 µg/mL (≈ 16.4 µM) | O=C(O[C@@H]1[C@@H](c2c(O)cc3c(c2O)C[C@@H](OC(=O)c2cc(O)c(O)c(O)c2)[C@@H](c2cc(O)c(O)c(O)c2)O3)c2c(O)cc(O)cc2O[C@@H]1c1cc(O)c(O)c(O)c1)c1cc(O)c(O)c(O)c1 | 30 µg/mL (≈ 32.8 µM) | 2 |
| No effect | – | COc1c(O)cc(C(=O)O[C@@H]2Cc3c(O)cc(O)cc3O[C@@H]2c2ccc(O)c(O)c2)cc1O | 50 µg/mL (≈ 110 µM) | – |
| – | 6.5 µg/mL (≈ 10.6 µM) | O=C(Oc1c(O)cc([C@H]2Oc3cc(O)cc(O)c3C[C@H]2OC(=O)c2cc(O)c(O)c(O)c2)cc1O)c1cc(O)c(O)c(O)c1 | 40 µg/mL (≈ 65.5 µM) | 6.2 |
| No effect | – | O=C(O[C@@H]1Cc2c(O)cc(O)cc2O[C@@H]1c1cc(O)c(O)cc1-c1c([C@H]2Oc3cc(O)cc(O)c3C[C@H]2OC(=O)c2cc(O)c(O)c(O)c2)cc(O)c(O)c1O)c1cc(O)c(O)c(O)c1 | 50 µg/mL (≈ 55.6 µM) | – |
| Not Active | – | O=C(O[C@@H]1Cc2c(O)cc(O)cc2O[C@@H]1c1ccc(O)cc1)c1cc(O)c(O)c(O)c1 | 50 µg/mL (≈ 117 µM) | – |
| – | 25 µg/mL (≈ 34.1 µM) | O=C(O[C@@H]1Cc2c(O)cc(O)cc2O[C@@H]1c1cc(O)c(O)c2c1C1C([C@H]3Oc4cc(O)cc(O)c4C[C@H]3O)=CC(=O)C1(O)O2)c1cc(O)c(O)c(O)c1 (stereo partly drawn) | 48 µg/mL (≈ 65.5 µM) | 1.9 |
| – | 15 µg/mL (≈ 24.6 µM) | Oc1cc(O)c2c(c1)O[C@H](c1cc(O)c(O)c(O)c1)[C@H](O)[C@H]2c1c(O)cc(O)c2c1O[C@H](c1cc(O)c(O)c(O)c1)[C@H](O)C2 | 18 µg/mL (≈ 29.5 µM) | 1.2 |
| – | 15 µg/mL (≈ 19.7 µM) | O=C(O[C@@H]1Cc2c(O)cc(O)c([C@H]3c4c(O)cc(O)cc4O[C@H](c4cc(O)c(O)c(O)c4)[C@@H]3O)c2O[C@@H]1c1cc(O)c(O)c(O)c1)c1cc(O)c(O)c(O)c1 | 28 µg/mL (≈ 36.7 µM) | 1.9 |
| – | 6 µg/mL (≈ 9.83 µM) | Oc1cc(O)c2c(c1)O[C@H](c1cc(O)c(O)c(O)c1-c1c([C@H]3Oc4cc(O)cc(O)c4C[C@H]3O)cc(O)c(O)c1O)[C@H](O)C2 | 9.5 µg/mL (≈ 15.6 µM) | 1.6 |
| – | 8 µg/mL (≈ 17.7 µM) | O=C(/C=C/c1ccc(O)cc1)O[C@@H]1Cc2c(O)cc(O)cc2O[C@@H]1c1cc(O)c(O)c(O)c1 | 35 µg/mL (≈ 77.4 µM) | 4.4 |
| No effect | – | O=C(O[C@H](Cc1c(O)cc(O)cc1O)[C@H](c1cc(O)c(O)c(O)c1)c1c(O)cc(O)c2c1O[C@H](c1cc(O)c(O)c(O)c1)[C@H](OC(=O)c1cc(O)c(O)c(O)c1)C2)c1cc(O)c(O)c(O)c1 | 9 µg/mL (≈ 9.82 µM) | – |
| No effect | – | O=C(O[C@@H]1Cc2c(O)cc(O)c([C@@H]3c4c(O)cc(O)cc4O[C@H](c4cc(O)c(O)c(O)c4)[C@H]3O)c2O[C@@H]1c1cc(O)c(O)c(O)c1)c1cc(O)c(O)c(O)c1 | 9 µg/mL (≈ 11.8 µM) | – |
| – | 12 µg/mL (≈ 19.7 µM) | Oc1cc(O)c2c(c1)O[C@H](c1cc(O)c(O)c(O)c1)[C@@H](O)[C@@H]2c1c(O)cc(O)c2c1O[C@H](c1cc(O)c(O)c(O)c1)[C@H](O)C2 | 18 µg/mL (≈ 29.5 µM) | 1.5 |
| – | 5.5 µg/mL (≈ 9.96 µM) | O=C(O[C@@H]1Cc2c(O)cc(O)cc2O[C@@H]1c1cc(O)c(=O)c2c(O)c(O)c(O)cc2c1)c1cc(O)c(O)c(O)c1 | 25 µg/mL (≈ 45.3 µM) | 4.5 |
| No effect | – | O=C(O[C@H](Cc1c(O)cc(O)cc1O)[C@@H](c1cc(O)c(O)c(O)c1)c1c(O)cc(O)c2c1O[C@H](c1cc(O)c(O)c(O)c1)[C@H](OC(=O)c1cc(O)c(O)c(O)c1)C2)c1cc(O)c(O)c(O)c1 | 8 µg/mL (≈ 8.73 µM) | – |
| No effect | – | O=C(O[C@H]1Cc2c(O)cc3c(c2O[C@H]1c1cc(O)c(O)c(O)c1)[C@H]1c2c(O)cc(O)cc2O[C@@](c2cc(O)c(O)c(O)c2)(O3)[C@@H]1O)c1cc(O)c(O)c(O)c1 | 40 µg/mL (≈ 52.6 µM) | – |

| EC50 [1] | EC50 [2] | Compound | IC50 (H9) | selectivity ratio [3] |
| --- | --- | --- | --- | --- |
| No effect | – | O=C(O[C@@H]1Cc2c(O)cc(O)c(Cc3c(O)cc(O)c4c3O[C@H](c3cc(O)c(O)c(O)c3)[C@H](OC(=O)c3cc(O)c(O)c(O)c3)C4)c2O[C@@H]1c1cc(O)c(O)c(O)c1)c1cc(O)c(O)c(O)c1 | 45 µg/mL (≈ 48.5 µM) | – |
| – | 6.5 µg/mL (≈ 10.6 µM) | O=C(Oc1cc([C@H]2Oc3cc(O)cc(O)c3C[C@H]2OC(=O)c2cc(O)c(O)c(O)c2)cc(O)c1O)c1cc(O)c(O)c(O)c1 | 40 µg/mL (≈ 65.5 µM) | 6.2 |
| – | 25 µg/mL (≈ 26.9 µM) | O=C(O[C@@H]1Cc2c(cc(O)c(Cc3c(O)cc(O)c4c3O[C@H](c3cc(O)c(O)c(O)c3)[C@H](OC(=O)c3cc(O)c(O)c(O)c3)C4)c2O)O[C@@H]1c1cc(O)c(O)c(O)c1)c1cc(O)c(O)c(O)c1 | 40 µg/mL (≈ 43.1 µM) | 1.6 |
| No effect | – | O=C(O[C@@H]1[C@@H](c2c(O)cc(O)c3c2O[C@H](c2cc(O)c(O)c(O)c2)[C@H](OC(=O)c2cc(O)c(O)c(O)c2)C3)c2c(O)cc(O)cc2O[C@@H]1c1cc(O)c(O)c(O)c1)c1cc(O)c(O)c(O)c1 | 40 µg/mL (≈ 43.7 µM) | – |
| No effect | – | O=C(O[C@@H]1Cc2c(O)cc(O)cc2O[C@@H]1c1cc(O)c(O)c2c(=O)c(O)cc([C@H]3Oc4cc(O)cc(O)c4C[C@H]3O)cc12)c1cc(O)c(O)c(O)c1 | 48 µg/mL (≈ 67 µM) | – |
| – | 14 µg/mL (≈ 15.3 µM) | O=C(O[C@H](Cc1c(O)cc(O)cc1O)[C@@H](c1cc(O)c(O)c(O)c1)c1c(O)cc2c(c1O)C[C@@H](OC(=O)c1cc(O)c(O)c(O)c1)[C@@H](c1cc(O)c(O)c(O)c1)O2)c1cc(O)c(O)c(O)c1 | 35 µg/mL (≈ 38.2 µM) | 2.5 |
| – | 9 µg/mL (≈ 9.69 µM) | O=C(O[C@@H]1Cc2c(cc(O)c(Cc3c(O)cc4c(c3O)C[C@@H](OC(=O)c3cc(O)c(O)c(O)c3)[C@@H](c3cc(O)c(O)c(O)c3)O4)c2O)O[C@@H]1c1cc(O)c(O)c(O)c1)c1cc(O)c(O)c(O)c1 | 35 µg/mL (≈ 37.7 µM) | 3.9 |
| – | 8 µg/mL (≈ 8.75 µM) | O=C(O[C@@H]1Cc2c(O)cc(O)cc2OC1c1cc(O)c(O)c(O)c1-c1c(C2Oc3cc(O)cc(O)c3C[C@H]2OC(=O)c2cc(O)c(O)c(O)c2)cc(O)c(O)c1O)c1cc(O)c(O)c(O)c1 (single isomer, unassigned) | 40 µg/mL (≈ 43.7 µM) | 5 |
| – | 10 µg/mL (≈ 16.4 µM) | Oc1cc(O)c2c(c1)OC(c1cc(O)c(O)c(O)c1-c1c(C3Oc4cc(O)cc(O)c4C[C@H]3O)cc(O)c(O)c1O)[C@H](O)C2 (single isomer, unassigned) | 20 µg/mL (≈ 32.8 µM) | 2 |
| No effect | – | O=C(O[C@@H]1Cc2c(O)cc(O)cc2O[C@@H]1c1cc(O)c(O)c(O)c1-c1c([C@H]2Oc3cc(O)cc(O)c3C[C@H]2O)cc(O)c(O)c1O)c1cc(O)c(O)c(O)c1 [2',2'-BISEPIGALLOCATECHIN MONOGALLATE] | 9.5 µg/mL (≈ 12.5 µM) | – |
| – | 9.8 µg/mL (≈ 32.2 µM) | O=C1c2c(O)cc(O)cc2O[C@H](c2ccc(O)c(O)c2)[C@H]1O [(+)-TAXIFOLIN] | 9.8 µg/mL (≈ 32.2 µM) | 1 |
| – | 70 µg/mL (≈ 255 µM) | Oc1ccc([C@H]2Oc3cc(O)cc(O)c3C[C@H]2O)cc1 [EPIAFZELECHIN (2R,3R)(-)] | 100 µg/mL (≈ 365 µM) | 1.4 |
| No effect | – | O=C(O[C@@H]1Cc2c(O)cc(O)cc2O[C@@H]1c1ccc(O)c(O)c1)c1cc(O)c(O)c(O)c1 [EPICATECHIN GALLATE] | > 10 µg/mL | – |
| – | 5.5 µg/mL (≈ 9.01 µM) | O=C(Oc1cc(O)cc2c1C[C@@H](OC(=O)c1cc(O)c(O)c(O)c1)[C@@H](c1cc(O)c(O)c(O)c1)O2)c1cc(O)c(O)c(O)c1 [EPIGALLOCATECHIN 3,5-DIGALLATE] | 20 µg/mL (≈ 32.8 µM) | 3.6 |
| No effect | – | O=C(O[C@@H]1Cc2c(O)cc(O)cc2O[C@@H]1c1cc(O)c(=O)c2c(O)c(O)cc([C@H]3Oc4cc(O)cc(O)c4C[C@H]3OC(=O)c3cc(O)c(O)c(O)c3)c2c1)c1cc(O)c(O)c(O)c1 [THEAFLAVIN DIGALLATE] | 48 µg/mL (≈ 55.3 µM) | – |
| No effect | – | O=c1c(O)cc([C@H]2Oc3cc(O)cc(O)c3C[C@H]2O)cc2c([C@H]3Oc4cc(O)cc(O)c4C[C@H]3O)cc(O)c(O)c12 [THEAFLAVIN] | 48 µg/mL (≈ 85 µM) | – |
| – | 19 µg/mL (≈ 20.8 µM) | O=C(O[C@@H]1Cc2c(O)cc(O)cc2O[C@@H]1c1cc(O)c(O)c(O)c1-c1c([C@H]2Oc3cc(O)cc(O)c3C[C@H]2OC(=O)c2cc(O)c(O)c(O)c2)cc(O)c(O)c1O)c1cc(O)c(O)c(O)c1 [THEASINENSIN A] | 18 µg/mL (≈ 19.7 µM) | 0.95 |

| Compound | EC50 [1] | EC50 [2] | IC50 (H9) | selectivity ratio [3] |
| --- | --- | --- | --- | --- |
| O=C(O[C@@H]1Cc2c(O)cc3c(c2O[C@@H]1c1cc(O)c(O)c(O)c1)C1(O)C(=O)O[C@H]([C@@H](O)CO)C1(O)O3)c1cc(O)c(O)c(O)c1 (stereo partly drawn) | – | 10 µg/mL (≈ 15.8 µM) | 40 µg/mL (≈ 63.2 µM) | 4 |
| O=C1O[C@H]([C@@H](O)CO)C2(O)Oc3cc(O)c4c(c3C12O)O[C@H](c1cc(O)c(O)c(O)c1)[C@H](O)C4 (stereo partly drawn) | – | 4 µg/mL (≈ 8.33 µM) | 38 µg/mL (≈ 79.1 µM) | 9.5 |
| Oc1cc(O)c2c(c1)O[C@H](c1cc(O)c(O)c(O)c1)[C@H](O)C2 [EPIGALLOCATECHIN] | No effect | – | 1.8 µg/mL (≈ 5.88 µM) | – |
| O=C(O[C@@H]1Cc2c(O)cc(O)cc2O[C@@H]1c1cc(O)c(O)c(O)c1)c1cc(O)c(O)c(O)c1 [EPIGALOCATECHIN GALLATE] | – | 7 µg/mL (≈ 15.3 µM) | 8 µg/mL (≈ 17.5 µM) | 1.1 |
